The assay has as its target PKM2 (Homo sapiens, UniProt P14618). Nature of the assay: PKM2 Assay (activation, LDH-coupled, absorbance at 340 nm). In kind it is biochemical. As to the method: • PKM2 stock enzyme solution was diluted in Reaction Buffer • 2 μL of compound was added into each well first, and then 180 μL of the Reaction Mix was added. • Reaction mixture with compound (without ADP) was incubated for 30 minutes at 4° C. • Plates were re-equilibrated to room temperature prior to adding 20 μL ADP to initiate the reaction. • Reaction progress was measured as changes in absorbance at 340 nm wavelength at room temperature (25° C.) Reaction Mix: PKM2 (50 ng/well), ADP (0.7 mM), PEP (0.15 mM), NADH (180 μM), LDH (2 units) in Reaction Buffer Reaction Buffer: 100 mM KCl, 50 mM Tris pH 7.5, 5 mM MgCl2, 1 mM DTT, 0.03% BSA.
Representative compounds of the invention were tested for their ability to activate PKM2 using the above assay. For simplicity, the activation activity of these compounds is represented as an AC50 in Tables 4 and 5 and throughout the application. […] “B” refers to an activator of PKM2 with an EC50 between 100 nM and 500 nM. “C” refers to an activator of PKM2 with an EC50 between 500 nM and 1000 nM. “D” refers to an activator of PKM2 with an EC50 between 1 μM and 20 μM. “E” refers a compound whose activation of PKM2 was not measurable. “N/C” refers to AC50 data not available.

A value given as a limit tells only on which side of the number the result lay.

Sequence of PKM2 (P14618 whole entry): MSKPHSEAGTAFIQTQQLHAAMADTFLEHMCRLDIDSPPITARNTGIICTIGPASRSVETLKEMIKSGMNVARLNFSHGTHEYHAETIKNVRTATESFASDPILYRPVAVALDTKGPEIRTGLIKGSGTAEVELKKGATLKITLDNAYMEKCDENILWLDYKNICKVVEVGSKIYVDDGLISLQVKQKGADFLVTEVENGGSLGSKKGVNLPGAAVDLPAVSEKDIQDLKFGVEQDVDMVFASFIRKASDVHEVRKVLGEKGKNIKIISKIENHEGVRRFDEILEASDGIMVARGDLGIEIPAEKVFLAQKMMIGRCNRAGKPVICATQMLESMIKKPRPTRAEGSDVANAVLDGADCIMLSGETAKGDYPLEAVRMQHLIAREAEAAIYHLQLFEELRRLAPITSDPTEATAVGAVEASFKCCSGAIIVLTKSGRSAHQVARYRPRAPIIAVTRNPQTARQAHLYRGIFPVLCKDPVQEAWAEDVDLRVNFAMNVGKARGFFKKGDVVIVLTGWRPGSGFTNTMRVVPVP

Usually AC50 stands for the concentration at which the activity in the assay is half-maximal. A higher AC50 goes with weaker potency. As to `C[C@H]1CN(Cc2ccccc2F)CCN1C(=O)c1ccc(NS(=O)(=O)c2cccc3cccnc23)cc1` [Compound 143, (S)—N-(4-(4-(2-fluorobenzyl)-2-methylpiperazine-1-carbonyl)phenyl)quinoline-8-sulfonamide], the AC50 (Table 4) is below 100 nM.

Take `O=C(c1ccc(NS(=O)(=O)c2cccc3cccnc23)cc1)N1CCN(C(=O)c2cc[nH]n2)CC1` [Compound 350, N-(4-(4-(1H-pyrazole-3-carbonyl)piperazine-1-carbonyl)phenyl)quinoline-8-sulfonamide]: the AC50 (Table 5) is 100 to 500 nM.

On to `CC(C)[C@H]1CN(C(C)c2ccc(F)cc2)CCN1C(=O)c1ccc(NS(=O)(=O)c2cccc3cccnc23)cc1` (some centres unmarked) [Compound 177], for which the AC50 (Table 4) lay in the range of 1000 to 20000 nM.

In turn, `[2H]C(c1ccc(F)cc1)N1CCN(C(=O)c2ccc(NS(=O)(=O)c3cccc4cccnc34)cc2)CC1` (centres unmarked) [Compound 448, N-(4-(4-(4-fluorobenzyl)piperazine-1-carbonyl)phenyl)quinoline-8-sulfonamide-(D)] displayed an AC50 (Table 5) below 100 nM.

In turn, `CC(c1cc(F)c(F)c(F)c1)N1CCN(C(=O)c2ccc(NS(=O)(=O)c3cccc4cccnc34)cc2)[C@H](C)C1` (stereo partly drawn) [Compound 158, N-(4-((2R)-2-methyl-4-(1-(3,4,5-trifluorophenyl)ethyl)piperazine-1-carbonyl)phenyl)quinoline-8-sulfonamide] gave an AC50 (Table 4) of 100 to 500 nM.

As for `C[C@H]1CN(Cc2cc(F)cc(F)c2)CCN1C(=O)c1ccc(NS(=O)(=O)c2cccc3cccnc23)cc1Cl` [Compound 179], the AC50 (Table 4) lay in the range of 100 to 500 nM.

In turn, `O=C(c1ccc(NS(=O)(=O)c2cccc3cccnc23)c(OC(F)(F)F)c1)N1CCN(C2(c3ccc(F)cc3)CC2)CC1` [Compound 402, N-(4-(4-(1-(4-fluorophenyl)cyclopropyl)piperazine-1-carbonyl)-2-(trifluoromethoxy)phenyl)quinoline-8-sulfonamide] had an AC50 (Table 5) of 100 to 500 nM.

With `C[C@@H](c1ccccc1)N1CCN(C(=O)c2ccc(NS(=O)(=O)c3cccc4cccnc34)cc2)CC1` [Compound 387, (S)—N-(4-(4-(1-phenylethyl)piperazine-1-carbonyl)phenyl)quinoline-8-sulfonamide], the AC50 (Table 5) was below 100 nM.

`CC(c1cccnc1)N1CCN(C(=O)c2ccc(NS(=O)(=O)c3cccc4cccnc34)cc2)CC1` (centres unmarked) [Compound 370, N-(4-(4-(1-(pyridin-3-yl)ethyl)piperazine-1-carbonyl)phenyl)quinoline-8-sulfonamide] displayed an AC50 (Table 5) below 100 nM.

For the setting “Table 5”, `O=C(c1ccc(NS(=O)(=O)c2cccc3cccnc23)c(C(F)(F)F)c1)N1CCN(Cc2ccncc2)CC1` [Compound 328, N-(4-(4-(pyridin-4-ylmethyl)piperazine-1-carbonyl)-2-(trifluoromethyl)phenyl)quinoline-8-sulfonamide] showed an AC50 of 1000 to 20000 nM.

The molecule `O=C(c1ccc(NS(=O)(=O)c2cccc3cccnc23)cc1)N1CCN(C(c2ccccc2)C(F)(F)F)CC1` (centres unmarked) [Compound 358, N-(4-(4-(2,2,2-trifluoro-1-phenylethyl)piperazine-1-carbonyl)phenyl)quinoline-8-sulfonamide] gave an AC50 (Table 5) below 100 nM.

Where the note is “Table 5”, `O=C(c1ccc(NS(=O)(=O)c2cccc3cccnc23)c(OC(F)(F)F)c1)N1CCN(Cc2ccc(Cl)cc2Cl)CC1` [Compound 374, N-(4-(4-(2,4-dichlorobenzyl)piperazine-1-carbonyl)-2-(trifluoromethoxy)phenyl)quinoline-8-sulfonamide] displayed an AC50 of 500 to 1000 nM.

Molecule `COc1cccc(F)c1CN1CCN(C(=O)c2ccc(NS(=O)(=O)c3cccc4cccnc34)c(OC(F)(F)F)c2)CC1` [Compound 308, N-(4-(4-(2-fluoro-6-methoxybenzyl)piperazine-1-carbonyl)-2-(trifluoromethoxy)phenyl)quinoline-8-sulfonamide] registered a concentration at half-maximal activity (AC50) (Table 5) of 500 to 1000 nM.

Turning to `O=C(c1ccc(NS(=O)(=O)c2cccc3cccnc23)c(OC(F)(F)F)c1)N1CCN(CC2CC2)CC1` [Compound 301, N-(4-(4-(cyclopropylmethyl)piperazine-1-carbonyl)-2-(trifluoromethoxy)phenyl)quinoline-8-sulfonamide], for the setting “Table 5”, the AC50 lay in the range of 100 to 500 nM.

For the setting “Table 4”, `C[C@H]1CN(CC2CCOC2)CCN1C(=O)c1ccc(NS(=O)(=O)c2cccc3cccnc23)cc1` (stereo partly drawn) [Compound 139, N-(4-((2S)-2-methyl-4-((tetrahydrofuran-3-yl)methyl)piperazine-1-carbonyl)phenyl)quinoline-8-sulfonamide] came in with an AC50 of 100 to 500 nM.

With `CC(c1ccc(F)cc1Cl)N1CCN(C(=O)c2ccc(NS(=O)(=O)c3cccc4cccnc34)cc2)[C@H](C)C1` (stereo partly drawn) [Compound 191, N-(4-((2R)-4-(1-(2-chloro-4-fluorophenyl)ethyl)-2-methylpiperazine-1-carbonyl)phenyl)quinoline-8-sulfonamide], the AC50 (Table 4) was 100 to 500 nM.

In turn, `CC(C)(c1ccccc1)N1CCN(C(=O)c2ccc(NS(=O)(=O)c3cccc4cccnc34)c(OC(F)(F)F)c2)CC1` [Compound 340, N-(4-(4-(2-phenylpropan-2-yl)piperazine-1-carbonyl)-2-(trifluoromethoxy)phenyl)quinoline-8-sulfonamide] gave an AC50 (Table 5) of 100 to 500 nM.

Turning to `O=C(c1ccc(NS(=O)(=O)c2cccc3cccnc23)c(OC(F)(F)F)c1)N1CCN(Cc2ccn[nH]2)CC1` [Compound 382, N-(4-(4-((1H-pyrazol-5-yl)methyl)piperazine-1-carbonyl)-2-(trifluoromethoxy)phenyl)quinoline-8-sulfonamide], under “Table 5”, the AC50 fell in the range of 100 to 500 nM.

The molecule `CC(c1cc(F)cc(F)c1F)N1CCN(C(=O)c2ccc(NS(=O)(=O)c3cccc4cccnc34)cc2)CC1` (centres unmarked) [Compound 396, N-(4-(4-(1-(2,3,5-trifluorophenyl)ethyl)piperazine-1-carbonyl)phenyl)quinoline-8-sulfonamide] gave an AC50 (Table 5) below 100 nM.

For the setting “Table 4”, `O=C(c1ccc(NS(=O)(=O)c2cccc3cccnc23)cc1)N1CCN(Cc2ccc(F)cc2)C[C@@H]1c1ccccc1` [Compound 165] had an AC50 below 100 nM.

In turn, `[2H]C(c1cc(F)cc(F)c1)N1CCN(C(=O)c2ccc(NS(=O)(=O)c3cccc4cccnc34)cc2)CC1` (centres unmarked) [Compound 450, N-(4-(4-(3,5-difluorobenzyl)piperazine-1-carbonyl)phenyl)quinoline-8-sulfonamide-(D)] displayed an AC50 (Table 5) below 100 nM.

The molecule `O=C(OCC1CCCO1)N1CCN(C(=O)c2ccc(NS(=O)(=O)c3cccc4cccnc34)c(OC(F)(F)F)c2)CC1` (centres unmarked) [Compound 316, (tetrahydrofuran-2-yl)methyl-4-(4-(quinoline-8-sulfonamido)-3-(trifluoromethoxy)benzoyl)piperazine-1-carboxylate] had an AC50 (Table 5) of 1000 to 20000 nM.

In turn, `O=C(c1ccc(NS(=O)(=O)c2cccc3cccnc23)nc1)N1CCN(CC2CC2)CC1` [Compound 411, N-(5-(4-(cyclopropylmethyl)piperazine-1-carbonyl)pyridin-2-yl)quinoline-8-sulfonamide] showed an AC50 (Table 5) of 1000 to 20000 nM.

Under “Table 4”, `CC(c1ccccc1F)N1CCN(C(=O)c2ccc(NS(=O)(=O)c3cccc4cccnc34)cc2)[C@H](C)C1` (some centres unmarked) [Compound 183] registered an AC50 below 100 nM.

`CCOC(=O)N1CCN(C(=O)c2ccc(NS(=O)(=O)c3cccc4cccnc34)cc2)[C@@H](C)C1` [Compound 107, (S)-Ethyl 3-methyl-4-(4-(quinoline-8-sulfonamido)benzoyl)piperazine-1-carboxylate] displayed an AC50 (Table 4) of 500 to 1000 nM.

With `CC(c1ccc(F)cc1)N1CCN(C(=O)c2ccc(NS(=O)(=O)c3cccc4cccnc34)cc2)[C@@H](C)C1` (some centres unmarked) [Compound 171], where the note is “Table 4”, the AC50 was in the range of 100 to 500 nM.

As to `C[C@H]1CN(Cc2cc(F)c(F)c(F)c2)CCN1C(=O)c1ccc(NS(=O)(=O)c2cccc3cccnc23)cc1` [Compound 155, (S)—N-(4-(2-methyl-4-(3,4,5-trifluorobenzyl)piperazine-1-carbonyl)phenyl)quinoline-8-sulfonamide], the AC50 (Table 4) is below 100 nM.

For `O=C(c1ccc(NS(=O)(=O)c2cccc3cccnc23)cc1)N1CCN(C[C@H]2CCOC2)CC1` [Compound 444, (R)— and (S)—N-(4-(4-((tetrahydrofuran-3-yl)methyl)piperazine-1-carbonyl)phenyl)quinoline-8-sulfonamide], the AC50 (Table 5) is below 100 nM.

The molecule `O=C(c1ccc(NS(=O)(=O)c2cccc3cccnc23)cc1)N1CCN(C(=O)C2CCCCO2)CC1` (centres unmarked) [Compound 430, N-(4-(4-(tetrahydro-2H-pyran-2-carbonyl)piperazine-1-carbonyl)phenyl)quinoline-8-sulfonamide] came in with an AC50 (Table 5) below 100 nM.

In turn, `CC(c1cc(F)c(F)cc1F)N1CCN(C(=O)c2ccc(NS(=O)(=O)c3cccc4cccnc34)cc2)CC1` (centres unmarked) [Compound 395, N-(4-(4-(1-(2,4,5-trifluorophenyl)ethyl)piperazine-1-carbonyl)phenyl)quinoline-8-sulfonamide] displayed an AC50 (Table 5) below 100 nM.

`C[C@@H]1CN(CC2CCOC2)CCN1C(=O)c1ccc(NS(=O)(=O)c2cccc3cccnc23)cc1` (stereo partly drawn) [Compound 115, N-(4-((2R)-2-methyl-4-((tetrahydrofuran-3-yl)methyl)piperazine-1-carbonyl)phenyl)quinoline-8-sulfonamide] showed an AC50 (Table 4) of 100 to 500 nM.

`CC(c1cc(F)c(F)cc1F)N1CCN(C(=O)c2ccc(NS(=O)(=O)c3cccc4cccnc34)cc2)[C@@H](C)C1` (some centres unmarked) [Compound 174] had a half-maximal activity concentration (AC50) (Table 4) of 100 to 500 nM.

The record behind these values is patent US8889667B2 (Agios Pharmaceuticals, Inc, priority 2010, dated 2014).
